Measurements from article PMC10112521, “High-throughput AR dimerization assay identifies androgen disrupting chemicals and metabolites” (Frontiers in Toxicology, 2023).
“And” between values parts separate entries of the source, which are not always exact repeats. Identical values can stand only once. Like-named read-outs stand apart in the source and are kept apart here.

Experiments:
AR2 cells (HepG2-AR2) [1] = test: Alamar Blue (resazurin) post hoc cell viability / cytotoxicity assay in AR2 cells; conditions: spid Viability, sheet antagonist_fits; for hill_tp (Hill model top): 0 where win_model is Constant
Experimental: (§1) For antagonist mode and cytotoxicity data, well-level normalized response (resp) was calculated as: resp=100 * RLU−bval/pval−bval where pval is the median RLU value of the MEC positive control wells (minimum four wells).

[2] = system: full-length human AR and the receptor interacting domain (RID) of SRC1; parameters: method as in U.S. EPA, 2002b; conditions: cited from earlier work
[3] = system: human AR (LBD and AF2 domains) and the RID of human SRC2; parameters: method as in U.S. EPA, 2002b; conditions: activity call, agonist mode, 2 h; invitroDBv3.4 ref U.S. EPA, 2002b; cited from earlier work
[4] = system: human AR (LBD and AF2 domains) and the RID of human SRC2; parameters: method as in U.S. EPA, 2002b; conditions: cited from earlier work
AR = system: AR; parameters: method as in Kleinstreuer et al., 2017; conditions: 2017, cited from earlier work; for Agonist reference: AR agonist reference class ref Kleinstreuer et al.; for Antagonist reference: AR antagonist reference class ref Kleinstreuer et al.
human AR [5] = biological target: T1, human AR (Homo sapiens, UniProt P10275); test: AR2 assay, antagonist mode: disruption of R1881 (10 nM)-induced AR homodimerization in HepG2-AR2 cells; format: cell-based
T1 sequence (P10275 1-920) 1: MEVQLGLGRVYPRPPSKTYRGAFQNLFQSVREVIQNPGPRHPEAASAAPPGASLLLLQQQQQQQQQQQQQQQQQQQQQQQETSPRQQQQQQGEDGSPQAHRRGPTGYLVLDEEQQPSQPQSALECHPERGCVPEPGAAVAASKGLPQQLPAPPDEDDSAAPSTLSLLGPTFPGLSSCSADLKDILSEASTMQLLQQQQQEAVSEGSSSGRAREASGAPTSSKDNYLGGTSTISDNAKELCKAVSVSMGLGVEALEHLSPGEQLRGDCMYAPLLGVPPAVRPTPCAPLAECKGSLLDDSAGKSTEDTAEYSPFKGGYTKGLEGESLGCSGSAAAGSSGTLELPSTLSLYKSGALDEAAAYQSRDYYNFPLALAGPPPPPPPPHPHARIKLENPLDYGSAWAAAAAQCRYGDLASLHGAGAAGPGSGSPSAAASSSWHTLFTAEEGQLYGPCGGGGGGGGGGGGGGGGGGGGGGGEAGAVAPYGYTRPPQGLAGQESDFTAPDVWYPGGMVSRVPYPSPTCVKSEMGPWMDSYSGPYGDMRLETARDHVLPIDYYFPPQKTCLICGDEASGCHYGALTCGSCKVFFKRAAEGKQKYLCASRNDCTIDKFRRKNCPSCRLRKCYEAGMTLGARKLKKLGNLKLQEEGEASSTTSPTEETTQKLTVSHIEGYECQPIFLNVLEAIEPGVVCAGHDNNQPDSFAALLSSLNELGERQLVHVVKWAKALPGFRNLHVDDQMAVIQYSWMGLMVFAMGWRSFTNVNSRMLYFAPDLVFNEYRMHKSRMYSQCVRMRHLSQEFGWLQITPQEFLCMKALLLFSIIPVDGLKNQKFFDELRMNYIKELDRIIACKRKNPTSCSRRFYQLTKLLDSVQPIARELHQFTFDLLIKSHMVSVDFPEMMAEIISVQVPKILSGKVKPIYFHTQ
T1 sequence (P10275 1-920) 2: T1 sequence (P10275 1-920) 1

human AR [6] = biological target: T1, human AR; test: cell-based; parameters: species or system AR2 cells (HepG2-AR2); NanoLuc complementation AR homodimerization, antagonist mode, loss of agonist-induced luminescence, AC50 by Hill fit; conditions: hill_ga, antagonist mode, 10 nM agonist stimulus, 18 h, no CYP expressed
human AR [7] = biological target: T1, human AR; test: AR2 assay, agonist mode: ligand-dependent AR homodimerization (NanoBiT luciferase complementation) in stable HepG2-AR2 cells; format: cell-based; parameters: Emax: dose or concentration left out as unconfirmed;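 on hill tp: Log2 fold change of luminescence over DMSO vehicle wells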;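 on max med: Log2 fold change of luminescence over DMSO vehicle wells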
human AR [8] = biological target: T1, human AR; test: cell-based; parameters: species or system AR2 cells (HepG2-AR2); NanoLuc complementation AR homodimerization, agonist mode, luminescence gain, AC50 by Hill fit; conditions: hill_ga
human AR [9] = biological target: T1, human AR; test: cell-based
human AR [10] = biological target: T1, human AR; test: AR2 assay, antagonist mode, retrofitted with human CYP metabolism by mRNA transfection (biogroups no RNA, Bgal, ten CYPs)
AR2 cells (HepG2-AR2) [11] = system: AR2 cells (HepG2-AR2)
Experimental: as §1

human AR [12] = biological target: T1, human AR
[13] = activity call, 8 h, single protocol detects agonists and antagonists, invitroDBv3.4 ref U.S. EPA, 2002b
[14] = activity call, 16 h, single protocol detects agonists and antagonists, invitroDBv3.4 ref U.S. EPA, 2002b
[15] = activity call, antagonist mode, 2 h, invitroDBv3.4 ref U.S. EPA, 2002b
[16] = activity call, antagonist mode, 18 h
[17] = spid AR_antagonist, sheet antagonist_fits
[18] = spid AR_antagonist, sheet antagonist_fits, 0 where win_model is Constant
[19] = sheet agonist_fits, Hill model gain slope (Hill coefficient), 0 given where win_model is Constant
[20] = sheet agonist_fits, Hill model top (efficacy), 0 given where win_model is Constant
[21] = sheet agonist_fits, maximum median response
[22] = sheet agonist_fits, winning concentration-response model (Constant, Hill, Gain-Loss)
[23] = spid=Bgal, agonist mode, 18 h, no CYP expressed

SMILES | max_med (maximum median response) (AR2 cells (HepG2-AR2) [1]) | hill_tp (Hill model top) (AR2 cells (HepG2-AR2) [1]) | UPitt agonist [3] | Agonist reference (AR) | Antagonist reference (AR) | Agonist reference (AR; Supplementary Table S1) | OT 8 hr [2, 13] | OT 16 hr [2, 14] | UPitt antagonist [4, 15] | Antagonist reference (AR; Supplementary Table S1) | AR2 antagonist (human AR [5]; [16]) | win_model (winning concentration-response model) (human AR [5]; [17]) | hill_gw (Hill model slope) (human AR [5]; [18]) | AC50 (human AR [6]; spid=Bgal) [µM] | AC50 (human AR [6]; spid=No_RNA) [µM] | hill_gw (human AR [7]; [19]) | hill_tp (human AR [7]; [20]) | max_med (human AR [7]; [21]) | win_model (human AR [7]; [22]) | AC50 (human AR [8]; [23]) [nM] | further results
C[C@]12CCC(=O)C=C1CC[C@@H]1[C@@H]2CC[C@@]2(C)[C@H]1CC[C@]2(C)O [17-Methyltestosterone] | 23.6208 | 30.9505 | 0 | Strong | Inactive | Strong | – | – | – | – | – | – | – | – | – | – | – | – | – | – | OT 8 hr [2]: 1; OT 16 hr [2]: 1; UPitt antagonist [4]: 0
CC(=O)O[C@]1(C(C)=O)CC[C@H]2[C@@H]3C=C(Cl)C4=CC(=O)[C@@H]5C[C@@H]5[C@]4(C)[C@H]3CC[C@@]21C [Cyproterone acetate] | 16.8337 | 12.2685 | 1 | Weak | Moderate | Weak | 1 | 1 | 1 | Moderate | – | – | – | – | – | – | – | – | – | – | –
CC(C)(c1ccc(O)cc1)c1ccc(O)cc1 [Bisphenol A] | 20.3748 | 26.326 | – | – | Moderate | – | 0 | 1 | 1 | Moderate | 1 | Hill | 1.098 | 13.1 | 15.9 | 0.5365 | 0.2654 | 0.1199 | Gain-Loss | > 99900 | max_med (maximum median response) (human AR [5]; [17]): 101.007; hill_tp (Hill model top) (human AR [5]; [18]): 118.275; activity call in agonist mode (human AR [7]; 128-chemical evaluation, 18 h, active = maximal median response >5*bmad): tested negative
CCC(=O)O[C@H]1CC[C@H]2[C@@H]3CCC4=CC(=O)CC[C@]4(C)[C@H]3CC[C@]12C [Testosterone propionate] | 32.5936 | 43.3025 | 0 | Strong | Inactive | Strong | – | – | – | – | – | – | – | – | – | – | – | – | – | – | AR2 antagonist (human AR [5]): 1; hill_gw (Hill model slope) (human AR [5]): 1.115; hill_tp (Hill model top) (human AR [5]): 100.853; max_med (maximum median response) (human AR [5]): 102.627; win_model (winning concentration-response model) (human AR [5]): Hill; AC50 (human AR [9]): 169 nM and 529 nM and 333 nM and 440 nM and 380 nM; OT 8 hr [2]: 1; OT 16 hr [2]: 1; UPitt antagonist [4]: 0; change of AC50 value (human AR [10]; median across all biogroups versus CYP2C8, CYP2C9, CYP2C19, CYP3A4): more than 2 fold; AR2 agonist (human AR [7]): 1; hill_gw (human AR [7]): 0.9765; hill_tp (human AR [7]): 2.087; max_med (human AR [7]): 2.0998; win_model (human AR [7]): Gain-Loss; AC50 (human AR [8]): 234 nM
CC1(C)[C@H](C(=O)O[C@H](C#N)c2cccc(Oc3ccccc3)c2)[C@@H]1C=C(Br)Br [Deltamethrin] | 34.81 | 34.1073 | 0 | Inactive | Inactive | Inactive | 0 | 0 | 0 | Inactive | 0 | Hill | 2.614 | 12.3 | 12.8 | – | 0 | 0.0322 | Constant | – | max_med (maximum median response) (human AR [5]; [17]): 65.39; hill_tp (Hill model top) (human AR [5]; [18]): 65.8008; AR2 agonist (human AR [7]; activity call, agonist mode, 18 h): 0
C[C@]12CC[C@H]3C(=CCc4cc(O)ccc43)[C@@H]1CCC2=O [Equilin] | – | – | – | – | – | – | – | – | – | – | – | Hill | 1.131 | 0.487 | 0.861 | 1.401 | 3.175 | 3.181 | Hill | 2140 | hill_tp (Hill model top) (human AR [5]): 92.4898; max_med (maximum median response) (human AR [5]): 92.3262; effect of CYP metabolism on AR antagonist activity (human AR [10]; CYP2C19 biogroup): reduced the potency; hill_tp (Hill model top) (AR2 cells (HepG2-AR2) [11]): 7.023; max_med (maximum median response) (AR2 cells (HepG2-AR2) [11]; spid Viability, sheet antagonist_fits): 12.8285; AC50 (human AR [8]; spid=No_RNA, agonist mode, 18 h, no CYP expressed): 2290 nM
CC12CC1(C)C(=O)N(c1cc(Cl)cc(Cl)c1)C2=O (centres unmarked) [Procymidone] | 14.9874 | 19.1789 | – | – | Weak | – | 0 | 0 | 1 | Weak | 1 | Hill | 0.938 | 3.84 | 4.23 | 8 | 0.2332 | 0.2214 | Hill | > 99900 | max_med (maximum median response) (human AR [5]): 95.0019; hill_ga (Hill model log AC50) (AR2 cells (HepG2-AR2) [11]): -1.506
C[C@]1(O)CC[C@H]2[C@@H]3CCC4=CC(=O)CCC4=C3C=C[C@@]21C [R1881, (17b)-17-hydroxy-17-methyl-estra-4,9,11-trien-3-one] | – | – | – | – | – | – | – | – | – | – | – | – | – | – | – | – | – | – | – | – | effect of CYP metabolism on the AR2 assay controls (human AR [12]): unimpacted by CYP metabolism; hill_gw (human AR [7]): 1.162; hill_tp (human AR [7]): 6.231; max_med (human AR [7]): 6.236; win_model (human AR [7]): Hill; Emax (human AR [7]; read-out: maximal response): > 95%
